Numbers after ± are expanded uncertainties.
Settings: Liquid, Ebulliometric method (Recirculating still)

OCCO [1,2-ethanediol]
vapor or sublimation pressure (470.22 K): 101.3 ± 0.5 kPa

Cc1ccc(C)cc1 [1,4-dimethylbenzene]
vapor or sublimation pressure (411.21 K): 101.3 ± 0.5 kPa

CC(C)(CO)CO [2,2-dimethyl-1,3-propanediol]
vapor or sublimation pressure (478.95 K): 101.3 ± 0.5 kPa

Reference: the NIST ThermoML archive (doi:10.1021/acs.jced.5b01044)
